One may read the IC50 as the point on the concentration scale where inhibition reaches its midpoint.

“And” between values parts separate entries of the source, which are not always exact repeats. Equal values may be shown once. Where a SMILES comes first, the peptide text is derived from it. The star is where a group is joined. Cbz = O=C(OCc1ccccc1)*

Experimental findings from ChEMBL document CHEMBL1201861, “Genomics of Drug Sensitity in Cancer screening data, Wellcome Trust Sanger Institute” are described below.

Common to all, as to experiment: cells
In one assay the test system is CP66-MEL. In kind it is functional, cell-based. The settings on record: Homo sapiens.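 Note: growth inhibition of CP66-MEL cells determined in a cell viability assay.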
The next assay deals with EHEB. In kind it is functional, cell-based. The settings on record: Homo sapiens.
For another assay, the system named is EVSA-T. It is filed as functional, cell-based, Homo sapiens.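 Note: growth inhibition of EVSA-T cells, read out with a cell viability assay.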
The next assay relates to MC-CAR. In kind it is functional, cell-based, Homo sapiens.
Another assay relates to MONO-MAC-6. In kind it is functional, cell-based, Homo sapiens.
A further assay deals with NALM-6. It is filed as functional, cell-based, Homo sapiens.
For the next assay, the system named is NB17. It is filed as functional, cell-based, Homo sapiens.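 Note: growth inhibition of NB17 cells, read out with a cell viability assay.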
In the next assay the test system is NCI-H1417. In kind it is functional, cell-based, Homo sapiens.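 Note: human NCI-H1417 cells, growth inhibition determined with a cell viability readout.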
For a further assay, the system named is NCI-H2196. It is filed as functional, cell-based, Homo sapiens.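 Note: cell viability assay used as the readout of growth inhibition in NCI-H2196 cells.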
For another assay, the system named is NCI-H345. In kind it is functional, cell-based, Homo sapiens.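 Note: growth inhibition of NCI-H345 cells measured with a cell viability assay.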
Another assay concerns NCI-H719. It is filed as functional, cell-based, Homo sapiens.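 Note: growth inhibition of the cultured cell line, read out with a viability assay.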
For the next assay, the system named is NCI-H889. In kind it is functional, cell-based, Homo sapiens.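 Note: cell growth inhibition of the cell line, read out with a viability assay.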
The subject of another assay is Raji. It is filed as functional, cell-based, Homo sapiens.
The subject of a further assay is SCLC-21H. It is filed as functional, cell-based, Homo sapiens.
A further assay deals with ARH-77. It is filed as functional, cell-based, Homo sapiens.
A further assay deals with BOKU. It is filed as functional, cell-based. To be noted: Homo sapiens.
The subject of a further assay is U-698-M. In kind it is functional, cell-based, Homo sapiens.
Another assay has as its system UACC-812. In kind it is functional, cell-based. The settings on record: Homo sapiens.
For the next assay, the system named is NB12. In kind it is functional, cell-based. The settings on record: Homo sapiens.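 Note: growth inhibition of human NB12 cells, read out by a cell viability assay.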
Where [1] appears, read: Homo sapiens, NCI-H2196, read-out: IC50.

Description for ARH-77: SANGER: Inhibition of human ARH-77 cell growth in a cell viability assay.
Description for BOKU: SANGER: Inhibition of human BOKU cell growth in a cell viability assay.
Description for CP66-MEL: SANGER: Inhibition of human CP66-MEL cell growth in a cell viability assay.
Description for EHEB: SANGER: Inhibition of human EHEB cell growth in a cell viability assay.
Description for EVSA-T: SANGER: Inhibition of human EVSA-T cell growth in a cell viability assay.
Description for MC-CAR: SANGER: Inhibition of human MC-CAR cell growth in a cell viability assay.
Description for MONO-MAC-6: SANGER: Inhibition of human MONO-MAC-6 cell growth in a cell viability assay.
Description for NALM-6: SANGER: Inhibition of human NALM-6 cell growth in a cell viability assay.
Description for NB12: SANGER: Inhibition of human NB12 cell growth in a cell viability assay.
Description for NB17: SANGER: Inhibition of human NB17 cell growth in a cell viability assay.
Description for NCI-H1417: SANGER: Inhibition of human NCI-H1417 cell growth in a cell viability assay.
Description for NCI-H2196: SANGER: Inhibition of human NCI-H2196 cell growth in a cell viability assay.
Description for NCI-H345: SANGER: Inhibition of human NCI-H345 cell growth in a cell viability assay.
Description for NCI-H719: SANGER: Inhibition of human NCI-H719 cell growth in a cell viability assay.
Description for NCI-H889: SANGER: Inhibition of human NCI-H889 cell growth in a cell viability assay.
Description for Raji: SANGER: Inhibition of human Raji cell growth in a cell viability assay.
Description for SCLC-21H: SANGER: Inhibition of human SCLC-21H cell growth in a cell viability assay.
Description for U-698-M: SANGER: Inhibition of human U-698-M cell growth in a cell viability assay.
Description for UACC-812: SANGER: Inhibition of human UACC-812 cell growth in a cell viability assay.

As to `C[C@@H](Oc1cc(-c2cnn(C3CCNCC3)c2)cnc1N)c1c(Cl)ccc(F)c1Cl` [CRIZOTINIB], the IC50 in the assay with CP66-MEL was above 2000 nM; with EHEB, above 2000 nM; in the assay with EVSA-T (Homo sapiens, EVSA-T), above 2000 nM; in the assay on MC-CAR (Homo sapiens, MC-CAR), above 2000 nM; in the assay with MONO-MAC-6 (Homo sapiens, MONO-MAC-6), above 2000 nM; in the assay with NALM-6 (Homo sapiens, NALM-6), above 2000 nM. Also, the IC50 in the assay with NB17 (Homo sapiens, NB17) was above 2000 nM; with NCI-H1417 (Homo sapiens, NCI-H1417) it was above 2000 nM; in the assay with NCI-H2196 (setting [1]) it was above 2000 nM; in the assay on NCI-H345 (Homo sapiens, NCI-H345), above 2000 nM; in the assay on NCI-H719 (Homo sapiens, NCI-H719) it was above 2000 nM; in the assay with NCI-H889 (Homo sapiens, NCI-H889), above 2000 nM. Besides, the IC50 with Raji (Homo sapiens, Raji) is above 2000 nM; with SCLC-21H (Homo sapiens, SCLC-21H) it was above 2000 nM; in the assay with ARH-77 (Homo sapiens, ARH-77), above 2000 nM; with BOKU it was above 2000 nM; in the assay on U-698-M (Homo sapiens, U-698-M), above 2000 nM; in the assay with UACC-812, above 2000 nM.
With `Nc1ccccc1NC(=O)c1ccc(CNC(=O)OCc2cccnc2)cc1` [ENTINOSTAT], the IC50 with CP66-MEL is 2480 nM; in the assay with EHEB it was 926 nM; in the assay with EVSA-T (Homo sapiens, EVSA-T), 1180 nM; in the assay with MC-CAR (Homo sapiens, MC-CAR), above 5000 nM; with MONO-MAC-6 (Homo sapiens, MONO-MAC-6), 388 nM; in the assay on NALM-6 (Homo sapiens, NALM-6), 649 nM. Also, the 50% inhibitory concentration (IC50) worked out at 318 nM in the assay on NB12; 544 nM in the assay with NB17 (Homo sapiens, NB17); 130 nM with NCI-H1417 (Homo sapiens, NCI-H1417); 4060 nM in the assay on NCI-H2196 (setting [1]); 2330 nM in the assay with NCI-H345 (Homo sapiens, NCI-H345); 1180 nM in the assay on NCI-H719 (Homo sapiens, NCI-H719). Besides, the IC50 was above 5000 nM with NCI-H889 (Homo sapiens, NCI-H889); above 5000 nM in the assay with Raji (Homo sapiens, Raji); 1260 nM with SCLC-21H (Homo sapiens, SCLC-21H); 382 nM in the assay on ARH-77 (Homo sapiens, ARH-77); above 5000 nM in the assay on U-698-M (Homo sapiens, U-698-M); above 5000 nM in the assay on UACC-812.
Take `CC(C)C[C@H](NC(=O)[C@H](Cc1ccccc1)NC(=O)c1cnccn1)B(O)O` [BORTEZOMIB]: the IC50 with CP66-MEL is 0.473 nM; in the assay on EHEB it was 1.67 nM; in the assay with EVSA-T (Homo sapiens, EVSA-T), 3.6 nM; in the assay with MC-CAR (Homo sapiens, MC-CAR), above 20 nM; with MONO-MAC-6 (Homo sapiens, MONO-MAC-6) it was 3.1 nM; in the assay on NALM-6 (Homo sapiens, NALM-6), 4.49 nM. Besides, the IC50 in the assay on NB12 is 1.56 nM; in the assay with NB17 (Homo sapiens, NB17), 2.04 nM; in the assay with NCI-H1417 (Homo sapiens, NCI-H1417), 5.51 nM; in the assay on NCI-H2196 (setting [1]), 6.8 nM; in the assay with NCI-H345 (Homo sapiens, NCI-H345) it was 7.2 nM; in the assay on NCI-H719 (Homo sapiens, NCI-H719) it was above 20 nM. Also, the IC50 is above 20 nM in the assay on NCI-H889 (Homo sapiens, NCI-H889); 4.46 nM in the assay with Raji (Homo sapiens, Raji); above 20 nM with SCLC-21H (Homo sapiens, SCLC-21H); 2.38 nM in the assay on ARH-77 (Homo sapiens, ARH-77); above 20 nM with U-698-M (Homo sapiens, U-698-M); above 20 nM in the assay on UACC-812.
As for `COc1cc(N2CCC(N3CCN(C)CC3)CC2)ccc1Nc1ncc(Cl)c(Nc2ccccc2S(=O)(=O)C(C)C)n1` [TAE-684], the IC50 with CP66-MEL is above 2000 nM; with EHEB, above 2000 nM; with EVSA-T (Homo sapiens, EVSA-T), above 2000 nM; with MC-CAR (Homo sapiens, MC-CAR) it was above 2000 nM; in the assay on MONO-MAC-6 (Homo sapiens, MONO-MAC-6), 333 nM; in the assay with NALM-6 (Homo sapiens, NALM-6), 907 nM. Besides, the IC50 with NB17 (Homo sapiens, NB17) was 1010 nM; in the assay with NCI-H1417 (Homo sapiens, NCI-H1417), above 2000 nM; in the assay on NCI-H2196 (setting [1]), above 2000 nM; with NCI-H345 (Homo sapiens, NCI-H345), above 2000 nM; in the assay on NCI-H719 (Homo sapiens, NCI-H719) it was above 2000 nM; in the assay with NCI-H889 (Homo sapiens, NCI-H889), above 2000 nM. The IC50 in the assay with Raji (Homo sapiens, Raji) was above 2000 nM; with SCLC-21H (Homo sapiens, SCLC-21H), above 2000 nM; in the assay with ARH-77 (Homo sapiens, ARH-77), above 2000 nM; with BOKU, above 2000 nM; with U-698-M (Homo sapiens, U-698-M) it was above 2000 nM; with UACC-812 it was above 2000 nM.
On to `Cc1cc(N2CCOCC2)cc2[nH]c(-c3c(NC[C@@H](O)c4cccc(Cl)c4)cc[nH]c3=O)nc12`, for which the IC50 in the assay on CP66-MEL is above 5120 nM; in the assay with EHEB, above 5120 nM; in the assay on EVSA-T (Homo sapiens, EVSA-T), above 5120 nM; in the assay with MC-CAR (Homo sapiens, MC-CAR) it was above 5120 nM; with MONO-MAC-6 (Homo sapiens, MONO-MAC-6) it was 608 nM; in the assay on NALM-6 (Homo sapiens, NALM-6), 2970 nM. Also, the half-inhibitory concentration (IC50) with NB17 (Homo sapiens, NB17) is above 5120 nM; with NCI-H1417 (Homo sapiens, NCI-H1417), above 5120 nM; in the assay with NCI-H2196 (setting [1]) it was above 5120 nM; with NCI-H345 (Homo sapiens, NCI-H345), above 5120 nM; with NCI-H719 (Homo sapiens, NCI-H719) it was above 5120 nM; in the assay on NCI-H889 (Homo sapiens, NCI-H889) it was above 5120 nM. For the same compound, the IC50 in the assay on Raji (Homo sapiens, Raji) is above 5120 nM; with SCLC-21H (Homo sapiens, SCLC-21H) it was above 5120 nM; in the assay on ARH-77 (Homo sapiens, ARH-77), 2800 nM; in the assay with BOKU, 3150 nM; in the assay with U-698-M (Homo sapiens, U-698-M), above 5120 nM.
Regarding `COc1ccc(N(C(=O)Oc2c(C)cccc2C)c2ccnc(Nc3ccc(N4CCN(C)CC4)cc3)n2)c(OC)c1`, the IC50 with CP66-MEL was above 5120 nM; in the assay with EHEB, above 5120 nM; with EVSA-T (Homo sapiens, EVSA-T) it was above 5120 nM; in the assay with MC-CAR (Homo sapiens, MC-CAR), above 5120 nM; in the assay with MONO-MAC-6 (Homo sapiens, MONO-MAC-6), above 5120 nM; with NALM-6 (Homo sapiens, NALM-6) it was above 5120 nM. In addition, the half-inhibitory concentration (IC50) is 2630 nM in the assay with NB17 (Homo sapiens, NB17); above 5120 nM in the assay on NCI-H1417 (Homo sapiens, NCI-H1417); above 5120 nM with NCI-H2196 (setting [1]); above 5120 nM in the assay on NCI-H345 (Homo sapiens, NCI-H345); above 5120 nM with NCI-H719 (Homo sapiens, NCI-H719); above 5120 nM in the assay with NCI-H889 (Homo sapiens, NCI-H889). The concentration for half-maximal inhibition (IC50) is above 5120 nM in the assay on Raji (Homo sapiens, Raji); above 5120 nM in the assay with SCLC-21H (Homo sapiens, SCLC-21H); above 5120 nM in the assay on ARH-77 (Homo sapiens, ARH-77); 1810 nM in the assay on BOKU; above 5120 nM with U-698-M (Homo sapiens, U-698-M).
Turning to `Cc1ccc(NC(=O)c2ccc(CN3CCN(C)CC3)cc2)cc1Nc1nccc(-c2cccnc2)n1` [IMATINIB], the IC50 with CP66-MEL was above 2000 nM; in the assay on EHEB it was above 2000 nM; in the assay on EVSA-T (Homo sapiens, EVSA-T) it was above 2000 nM; with MC-CAR (Homo sapiens, MC-CAR) it was above 2000 nM; with MONO-MAC-6 (Homo sapiens, MONO-MAC-6), above 2000 nM; in the assay with NALM-6 (Homo sapiens, NALM-6) it was above 2000 nM. Moreover, the IC50 with NB17 (Homo sapiens, NB17) is above 2000 nM; with NCI-H1417 (Homo sapiens, NCI-H1417) it was above 2000 nM; in the assay with NCI-H2196 (Homo sapiens, NCI-H2196), above 2000 nM; in the assay on NCI-H345 (Homo sapiens, NCI-H345) it was above 2000 nM; in the assay with NCI-H719 (Homo sapiens, NCI-H719) it was above 2000 nM; with NCI-H889 (Homo sapiens, NCI-H889) it was above 2000 nM. Further, the IC50 was above 2000 nM with Raji (Homo sapiens, Raji); above 2000 nM with SCLC-21H (Homo sapiens, SCLC-21H); above 2000 nM in the assay with ARH-77 (Homo sapiens, ARH-77); above 2000 nM with BOKU; above 2000 nM in the assay with U-698-M (Homo sapiens, U-698-M); above 2000 nM with UACC-812.
As to `CC(C)C[C@@H](C=O)NC(=O)[C@H](CC(C)C)NC(=O)[C@H](CC(C)C)NC(=O)OCc1ccccc1` [MG-132] (Cbz-Leu-Leu-Leu-aldehyde), the IC50 in the assay with EHEB is above 1000 nM; in the assay on EVSA-T (evsa-t), 499 nM and > 1000 nM; with MC-CAR (mc-car) it was above 1000 nM; with MONO-MAC-6 (Homo sapiens, MONO-MAC-6), 536 nM; with MONO-MAC-6 (mono-mac-6), 718 nM; with NALM-6 (Homo sapiens, NALM-6), above 1000 nM. The 50% inhibitory concentration (IC50) in the assay on NALM-6 (nalm-6) is above 1000 nM; in the assay on NB12 it was above 1000 nM; in the assay on NB17 (nb17), 430 nM and > 1000 nM; with NCI-H1417 (nci-h1417), above 1000 nM; in the assay with NCI-H2196 (setting [1]), above 1000 nM; in the assay with NCI-H2196 (nci-h2196, read-out: IC50), above 1000 nM. Further, the concentration for half-maximal inhibition (IC50) was above 1000 nM in the assay with NCI-H345 (nci-h345); above 1000 nM with NCI-H719 (nci-h719); above 1000 nM with NCI-H889 (nci-h889); above 1000 nM with Raji (Homo sapiens, Raji); above 1000 nM with Raji (raji); above 1000 nM in the assay on SCLC-21H (sclc-21h). For the same compound, the IC50 in the assay on ARH-77 (arh-77), in the assay on BOKU, with U-698-M (u-698-m) and with UACC-812 was above 1000 nM in each case.
